Measured values from patent publication EP4635500A1, “THERAPEUTIC AGENT FOR BACTERIAL INFECTION” (Sumitomo Pharma Co., Ltd., priority 2022, dated 2024).
Like-named read-outs stand apart in the source and are kept apart here.

Legend:
Enterobacterales = test: MIC, broth microdilution, CDC/FDA Antibiotic Resistance Isolate Bank (Example 7, Tables 8, 11, 12); type: cell-based; settings: for MIC50: read-out: MIC50; for MIC90: read-out: MIC90; for MIC: read-out: MIC
A. baumannii = test: MIC, broth microdilution, CDC/FDA Antibiotic Resistance Isolate Bank (Example 7, Tables 9, 13, 14); type: cell-based, Acinetobacter baumannii; settings: for MIC: read-out: MIC
[1] = 154 strains of Enterobacterales
[2] = carbapenemase-producing Enterobacterales, Metallo-β-lactamase (N = 47)
[3] = carbapenemase-producing Enterobacterales, Serine carbapenemase (N=61)

CN(C)c1cc(NC(=O)CNC(C)(C)C)c(O)c2c1C[C@H]1C[C@H]3[C@H](N(C)C)C(O)=C(C(N)=O)C(=O)[C@@]3(O)C(O)=C1C2=O [Tigecycline, tigecycline]
2 µg/mL: MIC90 (Enterobacterales; [1]) | MIC (Enterobacterales; Enterobacter cloacae, KUB No. 5761, AR Bank # 365) | MIC (Enterobacterales; Enterobacter cloacae, KUB No. 5762, AR Bank # 366) | MIC (Enterobacterales; Klebsiella oxytoca, KUB No. 5776, AR Bank # 380) | MIC90 (Enterobacterales; [2]) | MIC90 (Enterobacterales; [3]) | MIC90 (Enterobacterales; metallo-β-lactamase-producing strains of Enterobacterales) | MIC (A. baumannii; Acinetobacter baumannii, A. baumannii KUB No. 5575, AR Bank #78, OXA-71) | MIC (A. baumannii; Acinetobacter baumannii, A. baumannii KUB No. 5714, AR Bank #281, OXA-82) | MIC (A. baumannii; Acinetobacter baumannii, KUB No. 5721, AR Bank #288) | MIC (A. baumannii; Acinetobacter baumannii, KUB No. 5726, AR Bank #293) | MIC (A. baumannii; Acinetobacter baumannii, KUB No. 5730, AR Bank #297)
1 µg/mL: MIC80 (Enterobacterales; 154 strains of Enterobacterales, read-out: MIC80) | MIC (Enterobacterales; Enterobacter cloacae, KUB No. 5778, AR Bank # 432) | MIC (Enterobacterales; Klebsiella aerogenes, Enterobacter aerogenes, KUB No. 5777, AR Bank # 431) | MIC (Enterobacterales; Klebsiella pnemnonine, KUB No. 5758, AR Bank # 362) | MIC (Enterobacterales; Klebsiella pneumoniae, KUB No. 5757, AR Bank # 361) | MIC (Enterobacterales; Klebsiella pneumoniae, KUB No. 5760, AR Bank # 364) | MIC (Enterobacterales; Klebsiella pneumoniae, KUB No. 5772, AR Bank # 376) | MIC50 (Enterobacterales; [3]) | MIC (A. baumannii; Acinetobacter baumannii, A. baumannii KUB No. 5598, AR Bank #101, OXA-24, OXA-65) | MIC (A. baumannii; Acinetobacter baumannii, A. baumannii KUB No. 5599, AR Bank #102, OXA-66) | MIC (A. baumannii; Acinetobacter baumannii, A. baumannii KUB No. 5707, AR Bank #274, OXA-66, OXA-72) | MIC (A. baumannii; Acinetobacter baumannii, A. baumannii KUB No. 5709, AR Bank #276, no carbapenemase genes (-)) | MIC (A. baumannii; Acinetobacter baumannii, A. baumannii KUB No. 5710, AR Bank #277, OXA-24, OXA-65) | MIC (A. baumannii; Acinetobacter baumannii, A. baumannii KUB No. 5713, AR Bank #280, OXA-66) | MIC (A. baumannii; Acinetobacter baumannii, A. baumannii KUB No. 5716, AR Bank #283, OXA-23, OXA-66) | MIC (A. baumannii; Acinetobacter baumannii, KUB No. 5719, AR Bank #286) | MIC (A. baumannii; Acinetobacter baumannii, KUB No. 5722, AR Bank #259) | MIC (A. baumannii; Acinetobacter baumannii, KUB No. 5724, AR Bank #291) | MIC (A. baumannii; Acinetobacter baumannii, KUB No. 5728, AR Bank #295) | MIC (A. baumannii; Acinetobacter baumannii, KUB No. 5729, AR Bank #296) | MIC (A. baumannii; Acinetobacter baumannii, KUB No. 5732, AR Bank #299) | MIC (A. baumannii; Acinetobacter baumannii, KUB No. 5734, AR Bank #301) | MIC (A. baumannii; Acinetobacter baumannii, KUB No. 5735, AR Bank #302) | MIC (A. baumannii; Acinetobacter baumannii, KUB No. 5736, AR Bank #303) | MIC (A. baumannii; Acinetobacter baumannii, KUB No. 5737, AR Bank #304) | MIC (A. baumannii; Acinetobacter baumannii, KUB No. 5739, AR Bank #306) | MIC (A. baumannii; Acinetobacter baumannii, KUB No. 5740, AR Bank #307) | MIC (A. baumannii; Acinetobacter baumannii, KUB No. 5743, AR Bank #310) | MIC50 (A. baumannii; Acinetobacter baumannii, 55 isolates of A. baumannii, read-out: MIC50) | MIC80 (A. baumannii; Acinetobacter baumannii, 55 isolates of A. baumannii, read-out: MIC80) | MIC90 (A. baumannii; Acinetobacter baumannii, 55 isolates of A. baumannii, read-out: MIC90)
0.12 to 4 µg/mL: MICrange (Enterobacterales; [1])
0.5 µg/mL: MIC50 (Enterobacterales; [1]) | MIC (Enterobacterales; Enterobacter cloacae, Enterobacter cloacae complex, KUB No. 5661, AR Bank # 164) | MIC (Enterobacterales; Enterobacter cloacae, KUB No. 5763, AR Bank # 367) | MIC (Enterobacterales; Escherichia coli, KUB No. 5768, AR Bank # 372) | MIC (Enterobacterales; Escherichia coli, KUB No. 5769, AR Bank # 373) | MIC (Enterobacterales; Escherichia coli, KUB No. 5770, AR Bank # 374) | MIC (Enterobacterales; Escherichia coli, KUB No. 5779, AR Bank # 433) | MIC (Enterobacterales; Escherichia coli, KUB No. 5780, AR Bank # 434) | MIC (Enterobacterales; Escherichia coli, KUB No. 5781, AR Bank # 435) | MIC (Enterobacterales; Escherichia, KUB No. 57, AR Bank # 436 (row cut off)) | MIC (Enterobacterales; Klebsiella oxytoca, KUB No. 5771, AR Bank # 375) | MIC (Enterobacterales; Klebsiella pneumoniae, KUB No. 5759, AR Bank # 363) | MIC (Enterobacterales; Proteus mirabilis, KUB No. 5775, AR Bank # 379) | MIC50 (Enterobacterales; [2]) | MIC (A. baumannii; Acinetobacter baumannii, A. baumannii KUB No. 5580, AR Bank #83, OXA-23, OXA-69, NDM-1) | MIC (A. baumannii; Acinetobacter baumannii, A. baumannii KUB No. 5706, AR Bank #273, OXA-23, OXA-66) | MIC (A. baumannii; Acinetobacter baumannii, A. baumannii KUB No. 5708, AR Bank #275, OXA-23, OXA-66) | MIC (A. baumannii; Acinetobacter baumannii, A. baumannii KUB No. 5711, AR Bank #278, OXA-23, OXA-66) | MIC (A. baumannii; Acinetobacter baumannii, A. baumannii KUB No. 5712, AR Bank #279, OXA-23, OXA-66) | MIC (A. baumannii; Acinetobacter baumannii, A. baumannii KUB No. 5715, AR Bank #282, OXA-23, OXA-66) | MIC (A. baumannii; Acinetobacter baumannii, A. baumannii KUB No. 5717, AR Bank #284, OXA-24, OXA-65) | MIC (A. baumannii; Acinetobacter baumannii, A. baumannii KUB No. 5718, AR Bank #285, OXA-24, OXA-65) | MIC (A. baumannii; Acinetobacter baumannii, KUB No. 5720, AR Bank #287) | MIC (A. baumannii; Acinetobacter baumannii, KUB No. 5723, AR Bank #290) | MIC (A. baumannii; Acinetobacter baumannii, KUB No. 5727, AR Bank #294) | MIC (A. baumannii; Acinetobacter baumannii, KUB No. 5731, AR Bank #298) | MIC (A. baumannii; Acinetobacter baumannii, KUB No. 5733, AR Bank #300) | MIC (A. baumannii; Acinetobacter baumannii, KUB No. 5741, AR Bank #308) | MIC (A. baumannii; Acinetobacter baumannii, KUB No. 5742, AR Bank #309) | MIC (A. baumannii; Acinetobacter baumannii, KUB No. 5744, AR Bank #311) | MIC (A. baumannii; Acinetobacter baumannii, KUB No. 5746, AR Bank #313)
4 µg/mL: MIC (Enterobacterales; Enterobacter cloacae, KUB No. 5660, AR Bank # 163) | MIC (Enterobacterales; Proteus mirabilis, KUB No. 5773, AR Bank # 377)
0.25 µg/mL: MIC (Enterobacterales; Escherichia coli, KUB No. 5764, AR Bank # 368) | MIC (Enterobacterales; Escherichia coli, KUB No. 5765, AR Bank # 369) | MIC (Enterobacterales; Escherichia coli, KUB No. 5766, AR Bank # 370) | MIC (Enterobacterales; Escherichia coli, KUB No. 5767, AR Bank # 371) | MIC (Enterobacterales; Escherichia coli, KUB No. 5774, AR Bank # 378) | MIC (A. baumannii; Acinetobacter baumannii, A. baumannii KUB No. 5567, AR Bank #70, OXA-58, OXA-100) | MIC (A. baumannii; Acinetobacter baumannii, A. baumannii KUB No. 5585, AR Bank #88, OXA-64, NDM-1) | MIC (A. baumannii; Acinetobacter baumannii, KUB No. 5725, AR Bank #292) | MIC (A. baumannii; Acinetobacter baumannii, KUB No. 5738, AR Bank #305) | MIC (A. baumannii; Acinetobacter baumannii, KUB No. 5745, AR Bank #312)
3: Number of isolates at MIC ≤[…] (A. baumannii; MIC distribution, metallo-β-lactamase-producing A. baumannii, inhibitor µg/mL in parentheses)
0.25 to 2 µg/mL: MICrange (A. baumannii; 55 isolates of A. baumannii)
